Marks after values point to notes of the source that are not given here.
Columns and labels:
[1] = tested on: FeCl3-induced femoral artery thrombosis; experiment: FeCl3-induced femoral artery thrombosis in rabbits, intravenous maintenance administration; type: in vivo, rabbit
Protocol: 2. Grouping and administration: 10 rabbits were randomly divided into 3 groups, 2 to 3 rabbits per group. 1) Sham operation group (NS): Intravenous injection of the same volume of physiological saline, with the same operation method as above; 2) polypeptide 2 administration group: 8.0 mg/kg+20.0 mg/kg/h; 3) positive control enoxaparin group: 50 U/kg+150 U/kg/h. According to the body weight in kilograms of the rabbits, the first dose of the drug to be tested was dissolved in 2 mL of physiological saline for single bolus injection. The maintaining dose was dissolved in 9 ml of physiological saline, and placed in a double-channel micro-injection pump, which was dripped off within 90 minutes at a dripping speed of […]. The sham operation group was administered with the same volume of physiological saline.
3.1 Surgery preparation of rabbits: Rabbits were sent to the laboratory for accommodation for one day, and then screened at first. Blood samples were taken from arteries within ears, which were subjected to blood routine analysis and APTT assay, and the rabbits with normal blood hemateikon and APTT between 16s to 28s were selected for experiments. The rabbits to be tested were fasted with free access to water for the night before the experiment. The rabbits were anesthetized with intravenous injection of 3% sodium pentobarbital solution at 1 ml/kg, fixed in the supine position, and then, the common carotid artery at one side, external jugular vein, femoral artery at one side, femoral vein, and forelimb vein at one side were isolated. The forelimb vein was subjected to intubation for administration; the left femoral vein was subjected to intubation for blood collection to determine the platelet aggregation rate; the femoral artery was used for the establishment of an arterial thrombosis model; the common carotid artery and external jugular vein were used for the establishment of an arterial and venous bypass thrombosis model.
3.2 Arterial thrombosis (AT) model: A small piece of a filter paper (1 cm×1.5 cm) absorbed with 50% FeCl3 solution was applied onto the right femoral artery while administration, below which a small piece of a plastic film (2.5 cm×2.0 cm) was placed to protect surrounding tissues. After 10 minutes, the filter paper was removed, and then, the blood vessels and local tissues were rinsed with warm physiological saline, and the covered blood vessels were cut off. The thrombus which attached to the blood vessel walls was peeled off to be weighed on a tin foil for its wet weight, and then kept overnight at room temperature and weighed for its dry weight.
3.3 Experimental Procedures: The femoral arteries in the […] and both sides in the rabbits were isolated and stabilized for 10 minutes before the administration was started. An AT model was established by covering the femoral artery with a 50% FeCl3 filter paper while administration, and the filter paper was removed after 15 minutes. Observation was continued for 120 min after administration until the experiment was completed.
4.4 Thrombus weight: After the experiment was completed, the segment of the blood vessels in which there had been thrombus formation was cut off, weighed for the wet weight, and then kept overnight at room temperature and weighed for the dry weight. The thrombosis inhibitory rate was calculated with a calculation equation as follows: […]

[2] = tested on: thrombin-induced pulmonary embolism; experiment: Thrombin-induced pulmonary embolism in mice; type: in vivo, mouse; conditions: thrombin 1500 u/kg, tail iv 250 IU/kg
[3] = iv 8.0 + 20.0 (mg/kg + mg/kg/h)

Enoxaparin was tested, and the “Thrombus inhibitory rate Dry weight” value ([1]; iv 50 U + 150 U (U/kg+U/kg/h)) was 10 ± 4.2%, the “Thrombus inhibitory rate Wet weight” value ([1]; iv 50 U + 150 U (U/kg+U/kg/h)) was 40 ± 5.7% and the “Thrombus weight Dry weight” value ([1]; iv 50 U + 150 U (U/kg+U/kg/h)) was 2.3 ± 2.1 mg. The “Thrombus weight Wet weight” value ([1]; iv 50 U + 150 U (U/kg+U/kg/h)) was 3.9 ± 4.0 mg, the Number of platelets [2] was 459.83 ± 49.66 ×10^9 and the Mortality rate ([2]; within 15 min) was 10**^## %.

In the case of “D-Phe Pro Arg Pro Gly Gly Gly Gly Asn Gly Asp Phe Glu Glu Ile Pro Glu Glu Tyr Leu Glu Ala Ala Ala Lys Cys Har Gly Asp Trp Pro Cys [Polypeptide 2]”, the “Thrombus inhibitory rate Dry weight” value [1, 3] is reported as 84.9 ± 2.3%, the “Thrombus inhibitory rate Wet weight” value [1, 3] is reported as 75.6 ± 3.8% and the “Thrombus weight Dry weight” value [1, 3] is reported as 3.2 ± 2.0 mg. The “Thrombus weight Wet weight” value [1, 3] was 14.2 ± 10.2 mg.

Reference: patent US11643439B2, “Multi-target compound with anticoagulation and antiplatelet activity, preparation method therefor, and use thereof” (SHAANXI MICOT TECHNOLOGY LIMITED COMPANY, priority 2015, dated 2023)
